Measurements published in patent US20240277620A1, “MIXED SOLVENTS FOR SPRAY DRYING FOR PREPARATION OF AMORPHOUS SOLID DISPERSIONS” (Lonza Bend Inc., priority 2021, published 2024).
Several values for one entry are separate records, joined by “and”; a condition that tells them apart may be missing. Identical values can stand only once. Values belong to the compound of their own block, whether it stands above or below them.

Experiment: Determination of saturation concentration of drug in solvent (TGA of filtered saturated solution)

- Concentration (EtOAc:EtOH 0:100, 25° C.): 1690 µg/mL
- Concentration (wt %) (EtOAc:EtOH 0:100, 25° C.): 0.214 wt %
- Concentration (EtOAc:EtOH 15:85, 25° C.): 2380 µg/mL
- Concentration (wt %) (EtOAc:EtOH 15:85, 25° C.): 0.30 wt %
- Concentration (EtOAc:EtOH 40:60, 25° C.): 3400 µg/mL
- Concentration (wt %) (EtOAc:EtOH 40:60, 25° C.): 0.408 wt %
- Concentration (EtOAc:EtOH 55:45, 25° C.): 4690 µg/mL
- Concentration (wt %) (EtOAc:EtOH 55:45, 25° C.): 0.518 wt %
- Concentration (EtOAc:EtOH 70:30, 25° C.): 3390 µg/mL
- Concentration (wt %) (EtOAc:EtOH 70:30, 25° C.): 0.392 wt %
- Concentration (EtOAc:EtOH 85:15, 25° C.): 2030 µg/mL
- Concentration (wt %) (EtOAc:EtOH 85:15, 25° C.): 0.230 wt %
- Concentration (EtOAc:EtOH 100:0, 25° C.): 690 µg/mL
- Concentration (wt %) (EtOAc:EtOH 100:0, 25° C.): 0.076 wt %
- Solubility (wt %) (MeOAc/MeOH, MeOH 0 wt %): 0.091 wt %
- Solubility (wt %) (MeOAc/MeOH, MeOH 15 wt %): 0.496 wt %
- Solubility (wt %) (MeOAc/MeOH, MeOH 30 wt %): 0.763 wt %
- Solubility (wt %) (MeOAc/MeOH, MeOH 45 wt %): 0.962 wt %
- Solubility (wt %) (MeOAc/MeOH, MeOH 60 wt %): 0.868 wt %
- Solubility (wt %) (MeOAc/MeOH, MeOH 85 wt %): 0.486 wt %
- Solubility (wt %) (MeOAc/MeOH, MeOH 100 wt %): 0.371 wt %
- Concentration (MeOAc:MeOH 0:100, 25° C.): 2940 µg/mL
- Concentration (wt %) (MeOAc:MeOH 0:100, 25° C.): 0.371 wt %
- Concentration (MeOAc:MeOH 15:85, 25° C.): 3940 µg/mL
- Concentration (wt %) (MeOAc:MeOH 15:85, 25° C.): 0.486 wt %
- Concentration (MeOAc:MeOH 40:60, 25° C.): 7320 µg/mL
- Concentration (wt %) (MeOAc:MeOH 40:60, 25° C.): 0.868 wt %
- Concentration (MeOAc:MeOH 55:45, 25° C.): 8310 µg/mL
- Concentration (wt %) (MeOAc:MeOH 55:45, 25° C.): 0.961 wt %
- Concentration (MeOAc:MeOH 70:30, 25° C.): 6760 µg/mL
- Concentration (wt %) (MeOAc:MeOH 70:30, 25° C.): 0.763 wt %
- Concentration (MeOAc:MeOH 85:15, 25° C.): 4510 µg/mL
- Concentration (wt %) (MeOAc:MeOH 85:15, 25° C.): 0.496 wt %
- Concentration (MeOAc:MeOH 100:0, 25° C.): 850 µg/mL
- Concentration (wt %) (MeOAc:MeOH 100:0, 25° C.): 0.091 wt %
SMILES: Cc1cn(-c2cc(NC(=O)c3ccc(C)c(Nc4nccc(-c5cccnc5)n4)c3)cc(C(F)(F)F)c2)cn1 [Nilotinib, nilotinib]

- Solubility (wt %) (EtOAc/MeOH, MeOH 0 wt %): 0.065 wt % and 0.091 wt %
- Solubility (wt %) (EtOAc/MeOH, MeOH 15 wt %): 0.500 wt %
- Solubility (wt %) (EtOAc/MeOH, MeOH 20 wt %): 0.430 wt %
- Solubility (wt %) (EtOAc/MeOH, MeOH 30 wt %): 0.847 wt %
- Solubility (wt %) (EtOAc/MeOH, MeOH 35 wt %): 0.593 wt %
- Solubility (wt %) (EtOAc/MeOH, MeOH 45 wt %): 1.028 wt %
- Solubility (wt %) (EtOAc/MeOH, MeOH 50 wt %): 0.497 wt %
- Solubility (wt %) (EtOAc/MeOH, MeOH 60 wt %): 0.878 wt %
- Solubility (wt %) (EtOAc/MeOH, MeOH 65 wt %): 0.481 wt %
- Solubility (wt %) (EtOAc/MeOH, MeOH 80 wt %): 0.370 wt %
- Solubility (wt %) (EtOAc/MeOH, MeOH 85 wt %): 0.532 wt %
- Solubility (wt %) (EtOAc/MeOH, MeOH 100 wt %): 0.153 wt % and 0.371 wt %
- Concentration (EtOAc:EtOH 0:100, 25° C.): 1030 µg/mL
- Concentration (wt %) (EtOAc:EtOH 0:100, 25° C.): 0.130 wt %
- Concentration (EtOAc:EtOH 15:85, 25° C.): 1740 µg/mL
- Concentration (wt %) (EtOAc:EtOH 15:85, 25° C.): 0.22 wt %
- Concentration (EtOAc:EtOH 40:60, 25° C.): 2670 µg/mL
- Concentration (wt %) (EtOAc:EtOH 40:60, 25° C.): 0.321 wt %
- Concentration (EtOAc:EtOH 55:45, 25° C.): 2890 µg/mL
- Concentration (wt %) (EtOAc:EtOH 55:45, 25° C.): 0.341 wt %
- Concentration (EtOAc:EtOH 70:30, 25° C.): 3200 µg/mL
- Concentration (wt %) (EtOAc:EtOH 70:30, 25° C.): 0.370 wt %
- Concentration (EtOAc:EtOH 85:15, 25° C.): 2170 µg/mL
- Concentration (wt %) (EtOAc:EtOH 85:15, 25° C.): 0.246 wt %
- Concentration (EtOAc:EtOH 100:0, 25° C.): 360 µg/mL
- Concentration (wt %) (EtOAc:EtOH 100:0, 25° C.): 0.040 wt %
- Solubility (wt %) (MeOAc/MeOH, MeOH 0 wt %): 0.065 wt %
- Solubility (wt %) (MeOAc/MeOH, MeOH 20 wt %): 0.403 wt %
- Solubility (wt %) (MeOAc/MeOH, MeOH 35 wt %): 0.482 wt %
- Solubility (wt %) (MeOAc/MeOH, MeOH 50 wt %): 0.426 wt %
- Solubility (wt %) (MeOAc/MeOH, MeOH 65 wt %): 0.341 wt %
- Solubility (wt %) (MeOAc/MeOH, MeOH 80 wt %): 0.250 wt %
- Solubility (wt %) (MeOAc/MeOH, MeOH 100 wt %): 0.153 wt %
- Concentration (MeOAc:MeOH 0:100, 25° C.): 1210 µg/mL
- Concentration (wt %) (MeOAc:MeOH 0:100, 25° C.): 0.153 wt %
- Concentration (MeOAc:MeOH 20:80, 25° C.): 2220 µg/mL
- Concentration (wt %) (MeOAc:MeOH 20:80, 25° C.): 0.250 wt %
- Concentration (MeOAc:MeOH 35:65, 25° C.): 2850 µg/mL
- Concentration (wt %) (MeOAc:MeOH 35:65, 25° C.): 0.341 wt %
- Concentration (MeOAc:MeOH 50:50, 25° C.): 3650 µg/mL
- Concentration (wt %) (MeOAc:MeOH 50:50, 25° C.): 0.426 wt %
- Concentration (MeOAc:MeOH 65:35, 25° C.): 4230 µg/mL
- Concentration (wt %) (MeOAc:MeOH 65:35, 25° C.): 0.482 wt %
- Concentration (MeOAc:MeOH 80:20, 25° C.): 3630 µg/mL
- Concentration (wt %) (MeOAc:MeOH 80:20, 25° C.): 0.403 wt %
- Concentration (MeOAc:MeOH 100:0, 25° C.): 610 µg/mL
- Concentration (wt %) (MeOAc:MeOH 100:0, 25° C.): 0.065 wt %
SMILES: O=C(O)c1cc(/N=N/c2ccc(S(=O)(=O)Nc3ccccn3)cc2)ccc1O [Sulfasalazine, sulfasalazine]
